Experimental data published in PMC9977294, “A parasitic fungus employs mutated eIF4A to survive on rocaglate-synthesizing Aglaia plants” (eLife, 2023).
Several values for one entry are separate records, joined by “and”; a condition that tells them apart may be missing. Equal values may be shown once.

Columns and labels:
[1] = tested on: C. orbiculare eIF4A^His153Gly; experiment: In planta fungal biomass on cucumber cotyledons (RT-qPCR); assay type: in vivo, Colletotrichum orbiculare; settings: cucumber leaves; 1 µM aglafoline; 3 dpi; Figure 4B
Experimental: (§1) Fungal inoculation was performed as previously described ([Hiruma and Saijo, 2016]; [Kumakura et al., 2019]) with modifications. Cucumber cotyledons were used for C. orbiculare inoculation. Seeds of cucumber, Cucumis sativus Suyo strain (Sakata Seed Corp.), were planted on a mix of equal amounts of vermiculite (VS Kakou) and Supermix A (Sakata Seed Corp.). Cucumbers were grown at 24°C under a 10 hr light/14 hr dark cycle using biotrons (NK Systems). Cotyledons were detached from seedlings of cucumbers and inoculated with C. orbiculare at 13 days post-germination. C. orbiculare strains (eIF4A^WT#1 and eIF4A^H153G#1, Supplementary file 4) were cultured on 100 ml of 3.9% PDA in a 300 ml flask at 25°C for 6 days in the dark. Conidia that appeared on the surface of PDA were suspended in 20 ml of sterilized water, filtered through cell strainers (100 µm pore size, Corning), pelleted by centrifugation at 760 × g for 5 min, and resuspended in sterilized water. The concentration of conidia was measured with disposable hemacytometers (Funakoshi) and adjusted to 10^5 conidia/ml with or without aglafoline (1 µM). […]
(§2) Relative expression levels of the C. orbiculare 60S ribosomal protein L5 gene (GenBank: Cob_v012718) ([Gan et al., 2013]) normalized to that of a cucumber cyclophilin gene (GenBank: AY942800.1) ([Liang et al., 2018]) were determined. […]

C. orbiculare eIF4A^WT = experiment: as above; assay type: in vivo, Colletotrichum orbiculare
Experimental: as §1, with “Conidia that appeared on the surface of PDA were suspended in 20 ml of sterilized water, filtered through cell strainers (100 µm pore size, Corning), pelleted by centrifugation at 760 × g for 5 min, and resuspended in sterilized water.” left out
as §2, with “The living fungal biomass in cucumber leaves at 3.5 days postinoculation (dpi) was measured by RT-qPCR. Relative” for “Relative”

C. sativus leaves = experiment: Morphology of cucumber leaves sprayed with aglafoline; assay type: in vivo, Cucumis sativus; settings: aglafoline 1 µM in water sprayed, 3 days
Experimental: Figure 4. Phenotypic comparison of the C. orbiculare eIF4A^WT and eIF4A^His153Gly strains during infection in the presence of rocaglate. (A) Workflow for monitoring the biomass of C. orbiculare eIF4A^WT or eIF4A^His153Gly strains on cucumber leaves under treatment with aglafoline. (B) Comparison of in planta fungal biomass of C. orbiculare eIF4A^WT or eIF4A^His153Gly strains with or without treatment with 1 µM aglafoline. Relative expression levels of the C. orbiculare 60 S ribosomal protein L5 gene (GenBank: Cob_v012718) normalized to that of a cucumber cyclophilin gene (GenBank: AY942800.1) were determined by RT–qPCR at 3 dpi (n = 8). The relative fungal biomasses of C. orbiculare were normalized to those of eIF4A^WT without aglafoline. Significance was calculated by Student’s t-test (two-tailed). […] Figure 4—source data 1. Files for the primary data corresponding to Figure 4B. Figure 4—figure supplement 1. Characterization of cucumber leaves treated with aglafoline. (A) C. sativus leaves were sprayed with DMSO or aglafoline (1 µM) in water and incubated for 3 days using the same method as C. orbiculare inoculation. Figure 4—figure supplement 1—source data 1. Files for the full and unedited pictures corresponding to Figure 4—figure supplement 1A. [drawing 12]

## COC(=O)[C@H]1[C@@H](O)[C@@]2(O)c3c(OC)cc(OC)cc3O[C@@]2(c2ccc(OC)cc2)[C@@H]1c1ccccc1 [Aglafoline, methyl rocaglate]
[1]
  in planta fungal biomass: resulted in rocaglate resistance in the fungi
C. orbiculare eIF4A^WT; cucumber leaves, 1 µM aglafoline, 3 dpi, Figure 4B
  in planta fungal biomass: reduced the biomass of the WT eIF4A-recombined strain on cucumber leaves
C. orbiculare eIF4A^WT; eIF4AWT, aglafoline +, Replicate 1-8
  In planta fungal biomass (Figure 4B source data), single replicates: 0.01241 and 0.4556 and 0.03831 and 0.01038 and 0.09347 and 0.5781 and 0.1819 and 0.09019
C. sativus leaves
  morphological alteration of cucumber leaves: no morphological alteration of the leaves was observed
